“And” between values parts separate entries of the source, which are not always exact repeats. Equal entries are not always repeated. Where two headings read alike, the source gives them in different places.
Experiments:
[1] = Pharmacokinetic analysis of Nec-1f in mice (tissue PK); format: in vivo, C57BL/6 mice; conditions: for concentration at 5 min: sample collection 5 min; for concentration at 15 min: sample collection 15 min; for concentration at 120 min: sample collection 120 min; for concentration at 60 min: sample collection 60 min
[2] = target: α2A(h) (Homo sapiens, UniProt P08913); test: Off-target radioligand binding screen; conditions: read-out: α2A(h) ($): inhibition of radioligand binding
[3] = test system: BZD (central); test: Off-target radioligand binding screen; conditions: Nec-1f 10 µM
[4] = target: D1(h) (Homo sapiens, UniProt P21728); test: Off-target radioligand binding screen; conditions: read-out: D1(h) ($): inhibition of radioligand binding
[5] = test system: NMDA; test: Off-target radioligand binding screen; conditions: Nec-1f 10 µM
[6] = target: H1(h) (Homo sapiens, UniProt P35367); test: Off-target radioligand binding screen; conditions: read-out: H1(h) ($): inhibition of radioligand binding
[7] = target: H2(h) (Homo sapiens, UniProt P25021); test: Off-target radioligand binding screen; conditions: read-out: H2(h) ($): inhibition of radioligand binding
[8] = target: 5-HT2A(h) (Homo sapiens, UniProt P28223); test: Off-target radioligand binding screen; conditions: read-out: 5-HT2A(h) (#): inhibition of radioligand binding
[9] = test system: KV channel; test: Off-target radioligand binding screen; conditions: Nec-1f 10 µM
[10] = male, C57BL/6, mouse, brain, intraperitoneal, 2 mg/ml, brain, individual mice, read-out: concentration in brain
[11] = male, C57BL/6, mouse, liver, intraperitoneal, liver, individual mice, read-out: concentration in liver
[12] = male, C57BL/6, mouse, lung, intraperitoneal, lung, individual mice, read-out: concentration in lung
[13] = male, C57BL/6, mouse, pancreas, intraperitoneal, pancreas, individual mice, read-out: concentration in pancreas
[14] = male, C57BL/6, mouse, plasma, intraperitoneal, 2 mg/ml, plasma, individual mice, read-out: concentration in plasma
[15] = male, C57BL/6, mouse, whole blood, intraperitoneal, 2 mg/ml, blood, individual mice, read-out: concentration in blood

H2(h), sequence (P25021 whole entry): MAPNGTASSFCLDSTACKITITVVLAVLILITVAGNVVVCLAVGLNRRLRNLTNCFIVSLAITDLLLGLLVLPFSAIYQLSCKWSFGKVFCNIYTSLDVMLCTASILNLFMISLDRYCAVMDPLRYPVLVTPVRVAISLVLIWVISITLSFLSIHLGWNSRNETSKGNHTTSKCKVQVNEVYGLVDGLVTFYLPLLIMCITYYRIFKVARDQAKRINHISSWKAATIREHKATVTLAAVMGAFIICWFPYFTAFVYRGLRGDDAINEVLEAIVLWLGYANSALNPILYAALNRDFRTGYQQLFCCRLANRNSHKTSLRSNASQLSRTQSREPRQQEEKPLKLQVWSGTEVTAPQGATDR
H1(h), sequence (P35367 whole entry): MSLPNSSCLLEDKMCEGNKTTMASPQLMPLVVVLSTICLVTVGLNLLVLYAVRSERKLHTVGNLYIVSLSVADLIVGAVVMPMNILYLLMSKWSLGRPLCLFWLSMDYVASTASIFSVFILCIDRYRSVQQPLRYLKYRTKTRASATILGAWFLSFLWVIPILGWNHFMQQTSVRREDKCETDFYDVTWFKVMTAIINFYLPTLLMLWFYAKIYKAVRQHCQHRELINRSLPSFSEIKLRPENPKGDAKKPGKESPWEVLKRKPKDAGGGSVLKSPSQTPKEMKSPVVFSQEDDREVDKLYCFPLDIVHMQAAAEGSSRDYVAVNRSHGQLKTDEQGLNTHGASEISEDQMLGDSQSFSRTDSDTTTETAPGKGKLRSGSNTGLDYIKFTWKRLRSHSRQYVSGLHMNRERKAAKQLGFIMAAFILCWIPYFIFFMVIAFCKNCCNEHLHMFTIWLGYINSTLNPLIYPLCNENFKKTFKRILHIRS
D1(h), sequence (P21728 whole entry): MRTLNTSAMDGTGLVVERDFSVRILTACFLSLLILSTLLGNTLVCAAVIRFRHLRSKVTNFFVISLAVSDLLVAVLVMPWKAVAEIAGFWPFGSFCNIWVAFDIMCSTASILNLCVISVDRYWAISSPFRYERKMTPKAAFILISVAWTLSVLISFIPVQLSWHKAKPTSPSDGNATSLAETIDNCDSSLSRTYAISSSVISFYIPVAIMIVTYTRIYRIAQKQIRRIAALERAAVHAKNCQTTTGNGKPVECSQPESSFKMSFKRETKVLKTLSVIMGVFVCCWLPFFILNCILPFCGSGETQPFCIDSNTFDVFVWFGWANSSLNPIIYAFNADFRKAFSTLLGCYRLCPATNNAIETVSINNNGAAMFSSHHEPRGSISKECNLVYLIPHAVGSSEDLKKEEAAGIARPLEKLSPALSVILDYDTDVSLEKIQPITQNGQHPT
α2A(h), sequence (P08913 whole entry): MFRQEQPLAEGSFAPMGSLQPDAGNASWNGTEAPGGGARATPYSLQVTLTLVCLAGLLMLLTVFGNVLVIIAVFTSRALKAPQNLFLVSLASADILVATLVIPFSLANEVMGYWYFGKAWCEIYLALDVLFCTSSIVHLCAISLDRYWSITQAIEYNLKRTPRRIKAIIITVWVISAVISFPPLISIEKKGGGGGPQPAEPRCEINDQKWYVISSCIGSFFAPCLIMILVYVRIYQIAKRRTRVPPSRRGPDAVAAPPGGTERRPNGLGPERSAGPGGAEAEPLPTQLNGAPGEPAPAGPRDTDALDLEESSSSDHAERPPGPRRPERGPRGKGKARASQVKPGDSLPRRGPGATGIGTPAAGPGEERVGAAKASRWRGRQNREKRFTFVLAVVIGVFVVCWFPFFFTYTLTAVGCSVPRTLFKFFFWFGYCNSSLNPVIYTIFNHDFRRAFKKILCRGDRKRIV
5-HT2A(h), sequence (P28223 whole entry): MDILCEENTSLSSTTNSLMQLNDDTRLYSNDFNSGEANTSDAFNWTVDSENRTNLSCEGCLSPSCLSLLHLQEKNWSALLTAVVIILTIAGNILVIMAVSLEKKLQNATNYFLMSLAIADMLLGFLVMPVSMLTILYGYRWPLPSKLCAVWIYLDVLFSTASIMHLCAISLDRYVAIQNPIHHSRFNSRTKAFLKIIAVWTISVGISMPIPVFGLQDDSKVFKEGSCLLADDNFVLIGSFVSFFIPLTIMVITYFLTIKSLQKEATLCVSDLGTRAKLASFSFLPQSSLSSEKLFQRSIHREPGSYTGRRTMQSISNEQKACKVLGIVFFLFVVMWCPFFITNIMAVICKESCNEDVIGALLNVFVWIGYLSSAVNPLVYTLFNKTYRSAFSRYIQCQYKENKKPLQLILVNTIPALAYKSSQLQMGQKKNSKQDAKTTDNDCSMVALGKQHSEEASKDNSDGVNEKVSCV

CN1C(=O)C(Cc2c[nH]c3c(Cl)cccc23)NC1=S (centres unmarked) [Nec-1f]
202 ng/mL: concentration at 5 min [1, 11]
51 ng/mL: concentration at 30 min ([1]; male, C57BL/6, mouse, kidney, intraperitoneal, 2 mg/ml, sample collection 30 min, individual mice)
23 ng/mL: concentration at 15 min [1, 10]
19 ng/mL: concentration at 60 min [1, 14]
11 ng/mL: concentration at 5 min [1, 10] | concentration at 120 min [1, 10]
0 ng/mL and 1720 ng/mL and 911 ng/mL: concentration in pancreas ([1]; pancreas, sample collection 360 min, individual mice)
1.7%: KV channel ($): inhibition of radioligand binding [9]
0 ng/mL: concentration in blood ([1]; blood, sample collection 240 min, individual mice) | concentration in blood ([1]; blood, sample collection 360 min, individual mice) | concentration in blood ([1]; blood, sample collection 480 min, individual mice) | concentration in blood ([1]; blood, sample collection 1440 min, individual mice) | concentration in brain ([1]; brain, sample collection 240 min, individual mice) | concentration in brain ([1]; brain, sample collection 360 min, individual mice) | concentration in brain ([1]; brain, sample collection 480 min, individual mice) | concentration in brain ([1]; brain, sample collection 1440 min, individual mice) | concentration in heart ([1]; heart, sample collection 0 min, individual mice) | concentration in heart ([1]; heart, sample collection 240 min, individual mice) | concentration in heart ([1]; heart, sample collection 360 min, individual mice) | concentration in heart ([1]; heart, sample collection 480 min, individual mice) | concentration in heart ([1]; heart, sample collection 1440 min, individual mice) | concentration in kidney ([1]; kidney, sample collection 0 min, individual mice) | concentration in kidney ([1]; kidney, sample collection 240 min, individual mice) | concentration in kidney ([1]; kidney, sample collection 360 min, individual mice) | concentration in kidney ([1]; kidney, sample collection 480 min, individual mice) | concentration in kidney ([1]; kidney, sample collection 1440 min, individual mice) | concentration in liver ([1]; liver, sample collection 0 min, individual mice) | concentration in liver ([1]; liver, sample collection 240 min, individual mice) | concentration in liver ([1]; liver, sample collection 360 min, individual mice) | concentration in liver ([1]; liver, sample collection 480 min, individual mice) | concentration in liver ([1]; liver, sample collection 1440 min, individual mice) | concentration in lung ([1]; lung, sample collection 0 min, individual mice) | concentration in lung ([1]; lung, sample collection 240 min, individual mice) | concentration in lung ([1]; lung, sample collection 360 min, individual mice) | concentration in lung ([1]; lung, sample collection 480 min, individual mice) | concentration in lung ([1]; lung, sample collection 1440 min, individual mice) | concentration at 240 min ([1]; male, C57BL/6, mouse, brain, intraperitoneal, 2 mg/kg, brain, sample collection 240 min, individual mice, read-out: concentration in brain) | concentration at 360 min ([1]; male, C57BL/6, mouse, brain, intraperitoneal, 2 mg/kg, brain, sample collection 360 min, individual mice, read-out: concentration in brain) | concentration at 480 min ([1]; male, C57BL/6, mouse, brain, intraperitoneal, 2 mg/kg, brain, sample collection 480 min, individual mice, read-out: concentration in brain) | concentration at 0 min ([1]; male, C57BL/6, mouse, brain, intraperitoneal, 2 mg/ml, brain, sample collection 0 min, individual mice, read-out: concentration in brain) | concentration at 1440 min ([1]; male, C57BL/6, mouse, brain, intraperitoneal, 2 mg/ml, brain, sample collection 1440 min, individual mice, read-out: concentration in brain) | concentration at 240 min ([1]; male, C57BL/6, mouse, heart, intraperitoneal, 2 mg/kg, heart, sample collection 240 min, individual mice, read-out: concentration in heart) | concentration at 360 min ([1]; male, C57BL/6, mouse, heart, intraperitoneal, 2 mg/kg, heart, sample collection 360 min, individual mice, read-out: concentration in heart) | concentration at 480 min ([1]; male, C57BL/6, mouse, heart, intraperitoneal, 2 mg/kg, heart, sample collection 480 min, individual mice, read-out: concentration in heart) | concentration at 1440 min ([1]; male, C57BL/6, mouse, heart, intraperitoneal, 2 mg/kg, heart, sample collection 1440 min, individual mice, read-out: concentration in heart) | concentration at 0 min ([1]; male, C57BL/6, mouse, heart, intraperitoneal, heart, sample collection 0 min, individual mice, read-out: concentration in heart) | concentration at 120 min ([1]; male, C57BL/6, mouse, heart, intraperitoneal, heart, individual mice, read-out: concentration in heart) | concentration at 240 min ([1]; male, C57BL/6, mouse, kidney, intraperitoneal, 2 mg/kg, kidney, sample collection 240 min, individual mice, read-out: concentration in kidney) | concentration at 360 min ([1]; male, C57BL/6, mouse, kidney, intraperitoneal, 2 mg/kg, kidney, sample collection 360 min, individual mice, read-out: concentration in kidney) | concentration at 480 min ([1]; male, C57BL/6, mouse, kidney, intraperitoneal, 2 mg/kg, kidney, sample collection 480 min, individual mice, read-out: concentration in kidney) | concentration at 1440 min ([1]; male, C57BL/6, mouse, kidney, intraperitoneal, 2 mg/kg, kidney, sample collection 1440 min, individual mice, read-out: concentration in kidney) | concentration at 0 min ([1]; male, C57BL/6, mouse, kidney, intraperitoneal, 2 mg/ml, kidney, sample collection 0 min, individual mice, read-out: concentration in kidney) | concentration at 120 min ([1]; male, C57BL/6, mouse, kidney, intraperitoneal, 2 mg/ml, kidney, individual mice, read-out: concentration in kidney) | concentration at 240 min ([1]; male, C57BL/6, mouse, liver, intraperitoneal, 2 mg/kg, liver, sample collection 240 min, individual mice, read-out: concentration in liver) | concentration at 360 min ([1]; male, C57BL/6, mouse, liver, intraperitoneal, 2 mg/kg, liver, sample collection 360 min, individual mice, read-out: concentration in liver) | concentration at 480 min ([1]; male, C57BL/6, mouse, liver, intraperitoneal, 2 mg/kg, liver, sample collection 480 min, individual mice, read-out: concentration in liver) | concentration at 1440 min ([1]; male, C57BL/6, mouse, liver, intraperitoneal, 2 mg/kg, liver, sample collection 1440 min, individual mice, read-out: concentration in liver) | concentration at 0 min ([1]; male, C57BL/6, mouse, liver, intraperitoneal, liver, sample collection 0 min, individual mice, read-out: concentration in liver) | concentration at 120 min [1, 11] | concentration at 240 min ([1]; male, C57BL/6, mouse, lung, intraperitoneal, 2 mg/kg, lung, sample collection 240 min, individual mice, read-out: concentration in lung) | concentration at 360 min ([1]; male, C57BL/6, mouse, lung, intraperitoneal, 2 mg/kg, lung, sample collection 360 min, individual mice, read-out: concentration in lung) | concentration at 480 min ([1]; male, C57BL/6, mouse, lung, intraperitoneal, 2 mg/kg, lung, sample collection 480 min, individual mice, read-out: concentration in lung) | concentration at 0 min ([1]; male, C57BL/6, mouse, lung, intraperitoneal, lung, sample collection 0 min, individual mice, read-out: concentration in lung) | concentration at 1440 min ([1]; male, C57BL/6, mouse, lung, intraperitoneal, lung, sample collection 1440 min, individual mice, read-out: concentration in lung) | concentration at 0 min ([1]; male, C57BL/6, mouse, pancreas, intraperitoneal, pancreas, sample collection 0 min, individual mice, read-out: concentration in pancreas) | concentration at 1440 min ([1]; male, C57BL/6, mouse, pancreas, intraperitoneal, pancreas, sample collection 1440 min, individual mice, read-out: concentration in pancreas) | concentration at 240 min ([1]; male, C57BL/6, mouse, plasma, intraperitoneal, 2 mg/kg, plasma, sample collection 240 min, individual mice, read-out: concentration in plasma) | concentration at 360 min ([1]; male, C57BL/6, mouse, plasma, intraperitoneal, 2 mg/kg, plasma, sample collection 360 min, individual mice, read-out: concentration in plasma) | concentration at 480 min ([1]; male, C57BL/6, mouse, plasma, intraperitoneal, 2 mg/kg, plasma, sample collection 480 min, individual mice, read-out: concentration in plasma) | concentration at 1440 min ([1]; male, C57BL/6, mouse, plasma, intraperitoneal, 2 mg/kg, plasma, sample collection 1440 min, individual mice, read-out: concentration in plasma) | concentration at 0 min ([1]; male, C57BL/6, mouse, plasma, intraperitoneal, 2 mg/ml, plasma, sample collection 0 min, individual mice, read-out: concentration in plasma) | concentration at 5 min [1, 14] | concentration at 120 min [1, 14] | concentration at 240 min ([1]; male, C57BL/6, mouse, whole blood, intraperitoneal, 2 mg/kg, blood, sample collection 240 min, individual mice, read-out: concentration in blood) | concentration at 360 min ([1]; male, C57BL/6, mouse, whole blood, intraperitoneal, 2 mg/kg, blood, sample collection 360 min, individual mice, read-out: concentration in blood) | concentration at 480 min ([1]; male, C57BL/6, mouse, whole blood, intraperitoneal, 2 mg/kg, blood, sample collection 480 min, individual mice, read-out: concentration in blood) | concentration at 0 min ([1]; male, C57BL/6, mouse, whole blood, intraperitoneal, 2 mg/ml, blood, sample collection 0 min, individual mice, read-out: concentration in blood) | concentration at 5 min [1, 15] | concentration at 60 min [1, 15] | concentration at 120 min [1, 15] | concentration at 1440 min ([1]; male, C57BL/6, mouse, whole blood, intraperitoneal, 2 mg/ml, blood, sample collection 1440 min, individual mice, read-out: concentration in blood) | concentration in pancreas ([1]; pancreas, sample collection 1440 min, individual mice) | concentration in plasma ([1]; plasma, sample collection 0 min, individual mice) | concentration in plasma ([1]; plasma, sample collection 240 min, individual mice) | concentration in plasma ([1]; plasma, sample collection 360 min, individual mice) | concentration in plasma ([1]; plasma, sample collection 480 min, individual mice) | concentration in plasma ([1]; plasma, sample collection 1440 min, individual mice)
3.52 h: half-life ([1]; male, C57BL/6, mouse, kidney, ip, mice, single i.p. injection 2 mg/kg)
573 ng/mL: concentration at 5 min [1, 12]
-4.6%: BZD (central) (#): inhibition of radioligand binding [3]
490 ng/mL: concentration at 120 min [1, 13]
0 ng/mL and 176 ng/mL and 625 ng/mL: concentration in pancreas ([1]; pancreas, sample collection 480 min, individual mice)
-2.8%: inhibition at 10 µM [8]
476 ng/mL and 7372 ng/mL and 2018 ng/mL: concentration in pancreas ([1]; pancreas, sample collection 240 min, individual mice)
9.3%: inhibition at 10 µM [6]
-27.4%: inhibition at 10 µM [7]
334 ng/mL: concentration at 15 min [1, 11]
321 ng/mL: concentration at 60 min [1, 12]
2.3%: inhibition at 10 µM [4]
50 ng/mL: concentration at 120 min [1, 12]
8950 ng/mL: concentration at 5 min [1, 13]
35200 ng/mL: concentration at 15 min [1, 13]
-2%: inhibition at 10 µM [2]
1.4%: NMDA ($): inhibition of radioligand binding [5]

Source: publication PMC8292346, “Dysfunction of the key ferroptosis-surveilling systems hypersensitizes mice to tubular necrosis during acute kidney injury” (Nature Communications, 2021)
